Test results as given in patent EP0523356B1, “Burst-test” (Orpegen Medizinisch-Molekularbiologische …, priority 1991, dated 1993).

System: Granulozyten
Test: Oxidative burst test in heparinised whole blood (dihydrorhodamine 123, flow cytometry)
Format: cell-based, menschlichen
Details: Erwartungswerte, 10 + 10 Minuten Inkubation at 37°C, heparinised whole blood 100 µl
Description: Frisch entnommenes, heparinisiertes Vollblut wird gemixt (Vortex) und auf dem Boden eines 5 ml-Röhrchens aliquotiert, wobei pro Ansatz 100 µl verwendet werden. Durch EDTA oder Citrat stabilisiertes Vollblut ist für das Verfahren nicht sonderlich geeignet. Die Blutproben werden vor der Zugabe der Bakterien ca. 15 Minuten im Eiswasserbad inkubiert, um auf 0°C abgekühlt zu sein.
Die vorgekühlten E.coli-Bakterien (1 x 10^9 pro ml) werden gut gemixt (Vortex) und 20 µl pro Ansatz zum Vollblut pipettiert ("high control", Röhrchen 1). Gegebenenfalls können 20 µl N-Formyl-Met-Leu-Phe-Gebrauchslösung als "low control" in ein weiteres Röhrchen (Röhrchen 2) gegeben werden (Endkonzentration 10^-6 mol/l). 20 µl Waschlösung (phosphatgepufferte Salzlösung ohne Calcium^2+ und Magnesium^2+ mit 0,02 % EDTA) werden als Negativkontrolle in ein drittes Röhrchen (Röhrchen 3) gegeben.
Alle Röhrchen werden nochmals gemixt (Vortex) und 10 Minuten lang bei 37°C im Wasserbad unter starkem Schütteln inkubiert (bei einer kinetischen Messung können auch längere Inkubationszeiten erforderlich sein).
Nach 10 Minuten erfolgt die Zugabe von 20 µl frisch angesetzter Substratlösung und Mischen (Vortex) (Endkonzentration 0,2 µg Dihydrorhodamin 123 auf 100 µl Körperflüssigkeit). […]

Which “mittlere Fluoreszenzintensität (4 Dekaden, 1024 Kanäle)” value (green fluorescence (FL1) of the oxidising cells, stimulant: 20 µl E.coli 1 x 10^9 pro ml or N-Formyl-Met-Leu-Phe Endkonzentration 10^-6 mol/l) does the source give for `CSCC[C@H](NC=O)C(=O)N[C@@H](CC(C)C)C(=O)N[C@@H](Cc1ccccc1)C(=O)O` [N-Formyl-Met-Leu-Phe] here?
Its value is 10-100.

And the “% oxidierende Granulozyten” value (stimulant: 20 µl E.coli 1 x 10^9 pro ml or N-Formyl-Met-Leu-Phe Endkonzentration 10^-6 mol/l6 mol/l)?
Its value is 1-5%.
